Assays:
CYP3A4 [1] = test system: CYP3A4; set-up: method as in PMID 26331791; conditions: non-labeled ODV ref 11; cited from earlier work
CYP2D6 = test: Inhibition of CYP-mediated metabolism of 125I-ODV by selective inhibitor (paroxetine); type: in vitro ADME; conditions: ddY, mouse, pooled mouse liver homogenate (MLH), pH 7.4, probe 125I-ODV; inhibitor 10 µM, compared with NADPH [+]
Procedure: (§1) The pooled MLH was stored at −80 °C.
(§2) For inhibition analysis of specific isozymes of CYP-mediated metabolism of ^125I-ODV, selective inhibitors of CYP isozymes employed in this study included α-naphthoflavone (an inhibitor of CYP1A1 and 1A2), sulfaphenazole (CYP2C9), fluconazole (CYP2C19), paroxetine (CYP2D6), 4-methylpyrazole (CYP2E1), and ketoconazole (CYP3A4). These selective inhibitors were used to elucidate the CYP responsible for the biotransformation of ^125I-ODV. Each inhibitor was dissolved at 10 µM (dimethyl sulfoxide 0.8% v/v final concentration). […] The sample was incubated at 37 °C for 15 min with gentle shaking. The reaction was stopped by adding 100 µL ethanol, and the sample was centrifuged for 5 min at 18,000 g.

CYP3A4 [2] = test: Inhibition of CYP-mediated metabolism of 125I-ODV by selective inhibitor (ketoconazole); type: in vitro ADME; conditions: ddY, mouse, pooled mouse liver homogenate (MLH), pH 7.4, probe 125I-ODV; inhibitor 10 µM, compared with NADPH [+]
Procedure: as §1, §2

CN(C)CC(c1ccc(O)cc1)C1(O)CCCCC1 (stereo not drawn) [ODV, O-desmethylvenlafaxine]
CYP isozyme metabolizing ODV (CYP3A4 [1]): metabolized only by CYP3A4

Fc1ccc([C@@H]2CCNC[C@H]2COc2ccc3c(c2)OCO3)cc1 [paroxetine]
inhibition at 15 min, 10 µM (CYP2D6): 79%

CC(=O)N1CCN(c2ccc(OCC3COC(Cn4ccnc4)(c4ccc(Cl)cc4Cl)O3)cc2)CC1 (stereo not drawn) [ketoconazole]
inhibition at 15 min, 10 µM (CYP3A4 [2]): 63%
